The record followed here is patent US12636290B2, “BET inhibitors for modulating DUX4 expression in FSHD” (Saint Louis University, priority 2018, dated 2026).

Each structure is given as a SMILES string. Read-outs that look alike come from different tables or passages of the source.

This assay deals with DUX4 expression (surrogate marker MBD3L2). Put plainly: Screening: qPCR analysis of DUX4 target gene MBD3L2 in differentiating MB200 FSHD2 muscle cells. The format is cell-based. As to conditions: Homo sapiens, 40 hours, DUX4 expression inferred from surrogate marker MBD3L2 expression (qPCR, normalized to RPL30). On the procedure:
Cells and Cell Culture. Primary human myoblast cell lines, immortalized by retroviral transduction of cyclin-dependent kinase 4 (CDK4) and human telomerase reverse transcriptase (hTERT) (Stadler, et al., 2011), were obtained from the Fields Center at the University of Rochester (world-wide-web at urmc.rochester.edu/fields-center.aspx). Immortalized myoblasts were grown in Ham's F-10 Nutrient Mix (Gibco, Waltham, MA, USA) supplemented with 20% HyClone Fetal Bovine Serum (GE Healthcare Life Sciences, Pittsburgh, PA, USA), 100 U/100 μg penicillin/streptomycin (Gibco), 10 ng/ml recombinant human fibroblast growth factor (Promega Corporation, Madison, WI, USA) and 1 μM dexamethasone (Sigma-Aldrich). Differentiation of myoblasts into myotubes was achieved by switching the fully confluent myoblast monolayer into Dulbecco's Modified Eagle Medium (DMEM) (Gibco) containing 1% horse serum (Gibco), 100 U/100 μg penicillin/streptomycin, 10 μg/ml insulin (Sigma-Aldrich) and 10 μg/ml transferrin (Sigma-Aldrich) (HS/IT media) or DMEM:F12 Nutrient Mixture (1:1, Gibco) supplemented with 2% KnockOut Serum Replacement (Gibco), 100 U/100 μg penicillin/streptomycin, 10 μg/ml insulin and 10 μg/ml transferrin (KSR media) for 2-6 days.
Screening: qPCR analysis of DUX4 target genes MBD3L2. For screening compounds, differentiating MB200 FSHD2 muscle cells were exposed to BET inhibitors at a variety of concentrations for 40 hours to determine the effects of the drugs on DUX4 expression. Cell lysates were prepared using Cells-to-Ct Bulk Lysis Reagents (Invitrogen, Waltham, MA, USA). Gene expression was measured by quantitative polymerase chain reaction (qPCR) was carried out on a QuantStudio 5 (Applied Biosystems, Waltham, MA, USA) using TaqMan Gene Expression Assays (Applied Biosystems) and TaqMan Fast Virus 1-Step Master Mix (Invitrogen). The relative expression levels of DUX4 target gene methyl-CpG binding domain protein 3 like 2 (MBD3L2), was normalized to that of the reference gene ribosomal protein L30 (RPL30), which was included in multiplex (two gene) PCR reactions. TaqMan Gene Expression Assay ID numbers: MBD3L2, Hs00544743_m1; RPL30, Hs00265497_m1. Data is expressed as relative expression with the expression in absence of inhibitors set to one.
Analysis of MBD3L2 expression in cultured FSHD2 cells. DUX4 mRNA is present in very low levels, even in differentiating FSHD2 myoblasts, so DUX4 target gene MBD3L2 was used as a surrogate marker of DUX4 expression. FSHD2 patient derived muscle cells were analyzed to determine whether BET inhibitors affect MBD3L2 expression, indicating a reduction in DUX4 expression.
For orientation: Real-time PCR tracks product formation cycle by cycle.

By IC50 is commonly meant the concentration at which inhibition is half-maximal. For the molecule `Cn1cc(-c2ccc(N3CCC4(CCNC4)CC3)nc2)c2cc[nH]c2c1=O` [SLU-2120, 4-[6-(2,8-diazaspiro[4.5]decan-8-yl)pyridin-3-yl]-6-methyl-1H-pyrrolo[2,3-c]pyridin-7(6H)-one], the IC50 (read-out: DUX4* MT FSHD2: IC50) stood at 350 nM and the IC50 (read-out: DUX4* MT FSHD2 IC50) was found to be 350 nM.

`COc1ccc2cc(-c3cn(C)c(=O)c4[nH]ccc34)ccc2n1` [SLU-2294, 4-(2-methoxyquinolin-6-yl)-6-methyl-1H-pyrrolo[2,3-c]pyridin-7(6H)-one]: the IC50 runs as follows: (read-out: DUX4* MT FSHD2: IC50) 59 nM; (read-out: DUX4* MT FSHD2 IC50) 59 nM.

`CCN1CCN(CCOc2ccc(-c3ccc4cc(-c5cn(C)c(=O)c6[nH]ccc56)ccc4n3)cc2)[C@H](C)C1=O` [SLU-2611, (R)-4-{2-[4-(2-(4-ethyl-2-methyl-3-oxopiperazin-1-yl)ethoxy)phenyl]quinolin-6-yl}-6-methyl-1H-pyrrolo[2,3-c]pyridin-7(6H)-one]: the IC50 by setting is: (read-out: DUX4* MT FSHD2: IC50) 41 nM; (read-out: DUX4* MT FSHD2 IC50) 41 nM.

Consider `COc1cc(N2CCC(c3ccc(OCCN4CCN(C)C(=O)[C@H]4C)cc3)CC2)ncc1-c1cn(C)c(=O)c2[nH]ccc12` [SLU-2111, (R)-4-{6-[4-(4-(2-(2,4-dimethyl-3-oxopiperazin-1-yl)ethoxy)phenyl)piperidin-1-yl]-4-methoxypyridin-3-yl}-6-methyl-1,6-dihydro-7H-pyrrolo[2,3-c]pyridin-7-one], for which the half-inhibitory concentration (IC50) is 29 nM (read-out: DUX4* MT FSHD2: IC50) and 29 nM (read-out: DUX4* MT FSHD2 IC50).

On to `C=CCn1cc(-c2ccc3cc(-c4ccc(OCCN5CCN(C)C(=O)[C@H]5C)cc4)ccc3n2)c2cc[nH]c2c1=O` [SLU-2326, (R)-6-allyl-4-{6-[4-(2-(2,4-dimethyl-3-oxopiperazin-1-yl)ethoxy)phenyl]quinolin-2-yl}-1H-pyrrolo[2,3-c]pyridin-7(6H)-one], for which the half-inhibitory concentration (IC50) was 130 nM (read-out: DUX4* MT FSHD2: IC50) and 130 nM (read-out: DUX4* MT FSHD2 IC50).

As for `C[C@@H]1C(=O)N(C)CCN1CCCN1CCN(c2ccc3cc(-c4cn(C)c(=O)c5[nH]ccc45)ccc3n2)CC1` [SLU-2346, (R)-4-{2-[4-(3-(2,4-dimethyl-3-oxopiperazin-1-yl)propyl)piperazin-1-yl]quinolin-6-yl}-6-methyl-1H-pyrrolo[2,3-c]pyridin-7(6H)-one], the half-maximal inhibitory concentration (IC50) is, setting by setting: (read-out: DUX4* MT FSHD2: IC50) 41 nM; (read-out: DUX4* MT FSHD2 IC50) 41 nM.

On to `CCN1CCN(CCOc2ccc(-c3ccc4cc(-c5cn(C)c(=O)c6[nH]ccc56)ccc4n3)cc2)CC1=O` [SLU-2243, 4-{2-[4-(2-(4-ethyl-3-oxopiperazin-1-yl)ethoxy)phenyl]quinolin-6-yl}-6-methyl-1H-pyrrolo[2,3-c]pyridin-7(6H)-one], for which the IC50 was 110 nM (read-out: DUX4* MT FSHD2: IC50) and 110 nM (read-out: DUX4* MT FSHD2 IC50).

With `Cn1cc(-c2ccc(N3CCC(c4ccc(OCCN5CCOCC5)cc4)CC3)nc2)c2cc[nH]c2c1=O` [SLU-2118, 6-methyl-4-{6-[4-(4-(2-morpholinoethoxy)phenyl)piperidin-1-yl]pyridin-3-yl}-1H-pyrrolo[2,3-c]pyridin-7(6H)-one], the IC50 by setting is: (read-out: DUX4* MT FSHD2: IC50) 261 nM; (read-out: DUX4* MT FSHD2 IC50) 261 nM.

Regarding `C[C@@H]1C(=O)N(C)CCN1CCOc1ccc(C2CCN(c3ncc(-c4cn(C)c(=O)c5[nH]ccc45)cn3)CC2)cc1` [SLU-2091, (R)-4-{2-[4-(4-(2-(2,4-dimethyl-3-oxopiperazin-1-yl)ethoxy)phenyl)piperidin-1-yl]pyrimidin-5-yl}-6-methyl-1H-pyrrolo[2,3-c]pyridin-7(6H)-one], the concentration for half-maximal inhibition (IC50) is, setting by setting: (read-out: DUX4* MT FSHD2: IC50) 20 nM; (read-out: DUX4* MT FSHD2 IC50) 20 nM.

With `CN1CCN(CCOc2ccc(-c3ccc4nc(-c5cn(C)c(=O)c6[nH]ccc56)ccc4c3)cc2)C(C)(C)C1=O` [SLU-2280, 6-methyl-4-{6-[4-(2-(2,2,4-trimethyl-3-oxopiperazin-1-yl)ethoxy)phenyl]quinolin-2-yl}-1H-pyrrolo[2,3-c]pyridin-7(6H)-one], the concentration for half-maximal inhibition (IC50) is, setting by setting: (read-out: DUX4* MT FSHD2: IC50) 120 nM; (read-out: DUX4* MT FSHD2 IC50) 120 nM.

Take `CCCN1CCN(CCOc2ccc(-c3ccc4cc(-c5cn(C)c(=O)c6[nH]ccc56)ccc4n3)cc2)CC1=O` [SLU-2282, 6-methyl-4-{2-[4-(2-(3-oxo-4-propylpiperazin-1-yl)ethoxy)phenyl]quinolin-6-yl}-1H-pyrrolo[2,3-c]pyridin-7(6H)-one]: the IC50 reads like this: (read-out: DUX4* MT FSHD2: IC50) 54 nM; (read-out: DUX4* MT FSHD2 IC50) 54 nM.

Take `Cn1cc(-c2ccc3cc(-c4ccc(OCCN5CCOCC5)cc4)ccc3n2)c2cc[nH]c2c1=O` [SLU-2278, 6-methyl-4-{6-[4-(2-morpholinoethoxy)phenyl]quinolin-2-yl}-1,6-dihydro-7H-pyrrolo[2,3-c]pyridin-7-one]: the IC50 was determined as 120 nM (read-out: DUX4* MT FSHD2: IC50) and 120 nM (read-out: DUX4* MT FSHD2 IC50).

For the molecule `C[C@@H]1C(=O)N(C)CCN1CCOc1ccc(-c2ccc3cc(-c4cn(C(F)F)c(=O)c5[nH]ccc45)ccc3n2)cc1` [SLU-2297, (R)-6-(difluoromethyl)-4-{2-[4-(2-(2,4-dimethyl-3-oxopiperazin-1-yl)ethoxy)phenyl]quinolin-6-yl}-1H-pyrrolo[2,3-c]pyridin-7(6H)-one], the half-maximal inhibitory concentration (IC50) came to 1600 nM (read-out: DUX4* MT FSHD2: IC50) and 1600 nM (read-out: DUX4* MT FSHD2 IC50).

As for `CC(=O)N1C[C@@H](C)N(CCOc2ccc(-c3ccc4cc(-c5cn(C)c(=O)c6[nH]ccc56)ccc4n3)cc2)[C@@H](C)C1` [SLU-2107, 4-{2-[4-(2-((2R,6S)-4-acetyl-2,6-dimethylpiperazin-1-yl)ethoxy)phenyl]quinolin-6-yl}-6-methyl-1H-pyrrolo[2,3-c]pyridin-7(6H)-one], the IC50 reads like this: (read-out: DUX4* MT FSHD2: IC50) 48 nM; (read-out: DUX4* MT FSHD2 IC50) 48 nM.

With `COc1ccc(C2CCN(c3ccc(-c4cn(C)c(=O)c5[nH]ccc45)cn3)CC2)cc1` [SLU-2108, 4-{6-[4-(4-methoxyphenyl)piperidin-1-yl]pyridin-3-yl}-6-methyl-1H-pyrrolo[2,3-c]pyridin-7(6H)-one], the 50% inhibitory concentration (IC50) reads like this: (read-out: DUX4* MT FSHD2: IC50) 280 nM; (read-out: DUX4* MT FSHD2 IC50) 280 nM.

`Cn1cc(-c2ccc(N3CCC4(CCN(C(=O)CO)CC4)C3)nc2)c2cc[nH]c2c1=O` [SLU-2218, 4-{6-[8-(2-hydroxyacetyl)-2,8-diazaspiro[4.5]decan-2-yl]pyridin-3-yl}-6-methyl-1H-pyrrolo[2,3-c]pyridin-7(6H)-one]: the IC50 by setting is: (read-out: DUX4* MT FSHD2: IC50) 41 nM; (read-out: DUX4* MT FSHD2 IC50) 41 nM.

As to `C[C@@H]1C(=O)N(C)CCN1CCOCC(=O)N1CCC2(CC1)CCN(c1ccc(-c3cn(C)c(=O)c4[nH]ccc34)cn1)CC2` [SLU-2225, (R)-4-{6-[9-(2-(2-(2,4-dimethyl-3-oxopiperazin-1-yl)ethoxy)acetyl)-3,9-diazaspiro[5.5]undecan-3-yl]pyridin-3-yl}-6-methyl-1H-pyrrolo[2,3-c]pyridin-7(6H)-one], the 50% inhibitory concentration (IC50) runs as follows: (read-out: DUX4* MT FSHD2: IC50) 35 nM; (read-out: DUX4* MT FSHD2 IC50) 35 nM.

In the case of `Cn1cc(-c2ccc3nc(-c4ccc(OCCN5CCNC(=O)C5)cc4)ccc3c2)c2cc[nH]c2c1=O` [SLU-2242, 6-methyl-4-{2-[4-(2-(3-oxopiperazin-1-yl)ethoxy)phenyl]quinolin-6-yl}-1H-pyrrolo[2,3-c]pyridin-7(6H)-one], the IC50 is, setting by setting: (read-out: DUX4* MT FSHD2: IC50) 93 nM; (read-out: DUX4* MT FSHD2 IC50) 93 nM.

Take `C[C@@H]1CCC[C@H](C)N1CCOc1ccc(-c2ccc3cc(-c4cn(C)c(=O)c5[nH]ccc45)ccc3n2)cc1` [SLU-2233, 4-{2-[4-(2-((2R,6S)-2,6-dimethylpiperidin-1-yl)ethoxy)phenyl]quinolin-6-yl}-6-methyl-1H-pyrrolo[2,3-c]pyridin-7(6H)-one]: the IC50 reads like this: (read-out: DUX4* MT FSHD2: IC50) 290 nM; (read-out: DUX4* MT FSHD2 IC50) 290 nM.

Regarding `CN1CCN(CCOc2ccc(-c3ccc4nc(-c5cn(C)c(=O)c6[nH]ccc56)ccc4c3)cc2)CC1=O` [SLU-2283, 6-methyl-4-{6-[4-(2-(4-methyl-3-oxopiperazin-1-yl)ethoxy)phenyl]quinolin-2-yl}-1H-pyrrolo[2,3-c]pyridin-7(6H)-one], the IC50 is, setting by setting: (read-out: DUX4* MT FSHD2: IC50) 160 nM; (read-out: DUX4* MT FSHD2 IC50) 160 nM.

Take `C[C@@H]1C(=O)N(C)CCN1CCOc1ccc(-c2ccc(-c3cn(C)c(=O)c4[nH]ccc34)cc2)cc1` [SLU-2097, (R)-4-{4′-[2-(2,4-dimethyl-3-oxopiperazin-1-yl)ethoxy]-[1,1′-biphenyl]-4-yl}-6-methyl-1H-pyrrolo[2,3-c]pyridin-7(6H)-one]: the IC50 reads like this: (read-out: DUX4* MT FSHD2: IC50) 120 nM; (read-out: DUX4* MT FSHD2 IC50) 120 nM.
